Results published in PubChem BioAssay (NCI).
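Tested at 5 concentrations; 48 h exposure; 96-well plates; endpoints linearly interpolated, else capped at highest concentration. At the TGI there is no net growth.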

What was measured:
Test in all cases: NCI tumour cell line growth inhibition, 48 h
SN12C renal = tested on: SN12C renal
MDA-MB-231 breast = tested on: MDA-MB-231 breast
SK-OV-3 ovarian = tested on: SK-OV-3 ovarian
IGROV1 ovarian = tested on: IGROV1 ovarian
HCT-116 colon = tested on: HCT-116 colon
SNB-19 CNS = tested on: SNB-19 CNS
K-562 leukemia = tested on: K-562 leukemia
NCI-H226 lung = tested on: NCI-H226 lung
NCI-H23 lung = tested on: NCI-H23 lung
SK-MEL-5 melanoma = tested on: SK-MEL-5 melanoma
M14 melanoma = tested on: M14 melanoma
HL-60(TB) leukemia = tested on: HL-60(TB) leukemia
EKVX NSCLC = tested on: EKVX NSCLC
MALME-3M melanoma = tested on: MALME-3M melanoma
SNB-75 CNS = tested on: SNB-75 CNS
SF-539 CNS = tested on: SF-539 CNS
NCI/ADR-RES ovarian = tested on: NCI/ADR-RES ovarian
HS 578T breast = tested on: HS 578T breast
SR leukemia = tested on: SR leukemia
MDA-MB-435 = tested on: MDA-MB-435
A549 NSCLC = tested on: A549 NSCLC
TK-10 renal = tested on: TK-10 renal
786-0 renal = tested on: 786-0 renal
ACHN renal = tested on: ACHN renal
SK-MEL-2 melanoma = tested on: SK-MEL-2 melanoma
SW-620 colon = tested on: SW-620 colon
KM12 colon = tested on: KM12 colon
UO-31 renal = tested on: UO-31 renal
RPMI-8226 leukemia = tested on: RPMI-8226 leukemia
MDA-N = tested on: MDA-N
SK-MEL-28 melanoma = tested on: SK-MEL-28 melanoma
SF-295 CNS = tested on: SF-295 CNS
HT29 colon = tested on: HT29 colon
MOLT-4 leukemia = tested on: MOLT-4 leukemia
OVCAR-4 ovarian = tested on: OVCAR-4 ovarian
MCF7 breast = tested on: MCF7 breast
CAKI-1 renal = tested on: CAKI-1 renal
A498 renal = tested on: A498 renal
BT-549 breast = tested on: BT-549 breast
SF-268 CNS = tested on: SF-268 CNS
OVCAR-5 ovarian = tested on: OVCAR-5 ovarian
DU-145 prostate = tested on: DU-145 prostate
PC-3 prostate = tested on: PC-3 prostate
HOP-92 NSCLC = tested on: HOP-92 NSCLC
UACC-257 melanoma = tested on: UACC-257 melanoma
LOX IMVI melanoma = tested on: LOX IMVI melanoma
COLO 205 colon = tested on: COLO 205 colon
CCRF-CEM leukemia = tested on: CCRF-CEM leukemia
T-47D breast = tested on: T-47D breast
HOP-62 NSCLC = tested on: HOP-62 NSCLC
OVCAR-8 ovarian = tested on: OVCAR-8 ovarian
U251 CNS = tested on: U251 CNS
NCI-H522 lung = tested on: NCI-H522 lung
NCI-H460 lung = tested on: NCI-H460 lung
OVCAR-3 ovarian = tested on: OVCAR-3 ovarian
RXF 393 renal = tested on: RXF 393 renal
HCT-15 colon = tested on: HCT-15 colon
HCC-2998 colon = tested on: HCC-2998 colon
UACC-62 melanoma = tested on: UACC-62 melanoma
SNB-78 CNS = tested on: SNB-78 CNS
DMS 114 small cell lung = tested on: DMS 114 small cell lung
DMS 273 small cell lung = tested on: DMS 273 small cell lung
KM20L2 colon = tested on: KM20L2 colon
LXFL 529 NSCLC = tested on: LXFL 529 NSCLC

SMILES: COc1ccc(Oc2nc3cc(C(F)(F)F)ccc3nc2C(C)C)cc1
- TGI (SN12C renal): 59.7 µM
- TGI (MDA-MB-231 breast): 79 µM
- TGI (SK-OV-3 ovarian): > 100 µM
- TGI (IGROV1 ovarian): 82.7 µM
- TGI (HCT-116 colon): > 100 µM
- TGI (SNB-19 CNS): > 100 µM
- TGI (K-562 leukemia): 86.7 µM
- TGI (NCI-H226 lung): 49.6 µM
- TGI (NCI-H23 lung): 52.6 µM
- TGI (SK-MEL-5 melanoma): 52.2 µM
- TGI (M14 melanoma): > 100 µM
- TGI (HL-60(TB) leukemia): 37.7 µM
- TGI (EKVX NSCLC): 50.1 µM
- TGI (MALME-3M melanoma): 72.4 µM
- TGI (SNB-75 CNS): 95.7 µM
- TGI (SF-539 CNS): > 100 µM
- TGI (NCI/ADR-RES ovarian): 44.1 µM
- TGI (HS 578T breast): > 100 µM
- TGI (SR leukemia): 36.6 µM
- TGI (MDA-MB-435): > 100 µM
- TGI (A549 NSCLC): > 100 µM
- TGI (TK-10 renal): > 100 µM
- TGI (786-0 renal): > 100 µM
- TGI (ACHN renal): 90.4 µM
- TGI (SK-MEL-2 melanoma): 38.5 µM
- TGI (SW-620 colon): 84.2 µM
- TGI (KM12 colon): > 100 µM
- TGI (UO-31 renal): 95 µM
- TGI (RPMI-8226 leukemia): 42.4 µM
- TGI (MDA-N): > 100 µM
- TGI (SK-MEL-28 melanoma): > 100 µM
- TGI (SF-295 CNS): 51 µM
- TGI (HT29 colon): 44.6 µM
- TGI (MOLT-4 leukemia): 36.9 µM
- TGI (OVCAR-4 ovarian): > 100 µM
- TGI (MCF7 breast): 39.5 µM
- TGI (CAKI-1 renal): > 100 µM
- TGI (A498 renal): 58.3 µM
- TGI (BT-549 breast): 65.8 µM
- TGI (SF-268 CNS): > 100 µM
- TGI (OVCAR-5 ovarian): 77.4 µM
- TGI (DU-145 prostate): > 100 µM
- TGI (PC-3 prostate): > 100 µM
- TGI (HOP-92 NSCLC): 54.9 µM
- TGI (UACC-257 melanoma): 73.9 µM
- TGI (LOX IMVI melanoma): 30.5 µM
- TGI (COLO 205 colon): 30.2 µM
- TGI (CCRF-CEM leukemia): > 100 µM
- TGI (T-47D breast): 54.4 µM
- TGI (HOP-62 NSCLC): > 100 µM
- TGI (OVCAR-8 ovarian): 94.5 µM
- TGI (U251 CNS): 50.8 µM
- TGI (NCI-H522 lung): 41.3 µM
- TGI (NCI-H460 lung): 68.8 µM
- TGI (OVCAR-3 ovarian): 93.3 µM
- TGI (RXF 393 renal): 40.7 µM
- TGI (HCT-15 colon): 59.4 µM
- TGI (HCC-2998 colon): 41.5 µM
- TGI (UACC-62 melanoma): > 100 µM

SMILES: COc1ccc(C(=O)N=C2N(c3ccccc3)C(=Nc3ccccc3)C(=Nc3ccccc3)N2c2ccccc2)cc1
- TGI (SN12C renal): > 100 µM
- TGI (MDA-MB-231 breast): > 100 µM
- TGI (SK-OV-3 ovarian): > 100 µM
- TGI (IGROV1 ovarian): > 100 µM
- TGI (HCT-116 colon): > 100 µM
- TGI (SNB-19 CNS): > 100 µM
- TGI (K-562 leukemia): > 100 µM
- TGI (NCI-H226 lung): > 100 µM
- TGI (NCI-H23 lung): > 100 µM
- TGI (SK-MEL-5 melanoma): > 56.7 µM
- TGI (M14 melanoma): > 65.2 µM
- TGI (HL-60(TB) leukemia): > 100 µM
- TGI (EKVX NSCLC): > 100 µM
- TGI (MALME-3M melanoma): > 58.3 µM
- TGI (SNB-75 CNS): 27.2 µM
- TGI (SF-539 CNS): > 100 µM
- TGI (NCI/ADR-RES ovarian): > 100 µM
- TGI (HS 578T breast): 96.5 µM
- TGI (SR leukemia): > 100 µM
- TGI (MDA-MB-435): > 100 µM
- TGI (A549 NSCLC): > 100 µM
- TGI (TK-10 renal): > 61.2 µM
- TGI (786-0 renal): 59.5 µM
- TGI (ACHN renal): > 100 µM
- TGI (SK-MEL-2 melanoma): 98.1 µM
- TGI (SW-620 colon): > 100 µM
- TGI (KM12 colon): > 100 µM
- TGI (UO-31 renal): > 100 µM
- TGI (RPMI-8226 leukemia): > 100 µM
- TGI (MDA-N): > 100 µM
- TGI (SK-MEL-28 melanoma): > 66.6 µM
- TGI (SF-295 CNS): > 100 µM
- TGI (HT29 colon): > 100 µM
- TGI (MOLT-4 leukemia): > 100 µM
- TGI (OVCAR-4 ovarian): 87.3 µM
- TGI (MCF7 breast): > 100 µM
- TGI (CAKI-1 renal): > 100 µM
- TGI (A498 renal): 61.1 µM
- TGI (BT-549 breast): > 58.2 µM
- TGI (SF-268 CNS): > 100 µM
- TGI (OVCAR-5 ovarian): > 100 µM
- TGI (DU-145 prostate): > 100 µM
- TGI (PC-3 prostate): > 65.5 µM
- TGI (HOP-92 NSCLC): 15 µM
- TGI (UACC-257 melanoma): > 100 µM
- TGI (LOX IMVI melanoma): > 100 µM
- TGI (COLO 205 colon): > 100 µM
- TGI (CCRF-CEM leukemia): > 100 µM
- TGI (T-47D breast): > 100 µM
- TGI (HOP-62 NSCLC): 57.5 µM
- TGI (OVCAR-8 ovarian): > 100 µM
- TGI (U251 CNS): > 87.9 µM
- TGI (NCI-H522 lung): > 100 µM
- TGI (NCI-H460 lung): > 100 µM
- TGI (OVCAR-3 ovarian): > 100 µM
- TGI (RXF 393 renal): 25.8 µM
- TGI (HCT-15 colon): > 100 µM
- TGI (HCC-2998 colon): > 100 µM
- TGI (UACC-62 melanoma): > 100 µM

SMILES: COC(=O)c1cc(Cl)ccc1NC(=O)C1CCCCC1
- TGI (SN12C renal): > 100 µM
- TGI (HCT-116 colon): > 100 µM
- TGI (SNB-78 CNS): > 100 µM
- TGI (SNB-19 CNS): > 100 µM
- TGI (K-562 leukemia): > 100 µM
- TGI (DMS 114 small cell lung): > 100 µM
- TGI (NCI-H226 lung): > 100 µM
- TGI (NCI-H23 lung): > 100 µM
- TGI (DMS 273 small cell lung): > 100 µM
- TGI (EKVX NSCLC): > 100 µM
- TGI (MALME-3M melanoma): > 100 µM
- TGI (SF-539 CNS): > 100 µM
- TGI (SR leukemia): > 100 µM
- TGI (KM20L2 colon): > 100 µM
- TGI (A549 NSCLC): > 100 µM
- TGI (TK-10 renal): > 100 µM
- TGI (786-0 renal): > 100 µM
- TGI (ACHN renal): > 100 µM
- TGI (SK-MEL-2 melanoma): > 100 µM
- TGI (SW-620 colon): > 100 µM
- TGI (KM12 colon): > 100 µM
- TGI (UO-31 renal): > 100 µM
- TGI (RPMI-8226 leukemia): > 100 µM
- TGI (SK-MEL-28 melanoma): > 100 µM
- TGI (SF-295 CNS): > 100 µM
- TGI (HT29 colon): > 100 µM
- TGI (MOLT-4 leukemia): > 100 µM
- TGI (LXFL 529 NSCLC): > 100 µM
- TGI (SF-268 CNS): > 100 µM
- TGI (OVCAR-5 ovarian): > 100 µM
- TGI (HOP-92 NSCLC): > 100 µM
- TGI (UACC-257 melanoma): > 100 µM
- TGI (COLO 205 colon): > 100 µM
- TGI (OVCAR-8 ovarian): > 100 µM
- TGI (U251 CNS): > 100 µM
- TGI (RXF 393 renal): > 100 µM
- TGI (HCT-15 colon): > 100 µM
- TGI (HCC-2998 colon): > 100 µM
